Source: patent publication US6710066B2, “Photochemotherapeutic method using 5-aminolevulinic acid and other precursors of endogenous porphyrins” (priority 1989, dated 2004)

Columns and labels:
[1] = cited from earlier work
P. yoelii = experiment: In vitro incubation of blood, spleen or marrow cells from P. yoelii infected mice with ALA; type: cell-based, mouse
Experimental: For the in vitro studies, no ALA was given to the donor mice. Two drops of whole blood were withdrawn from the tail of each mouse and placed in a 35 mm petri dish containing 3 cc of RPMI 1640 without phenol red.
i) a petri dish contained infected whole blood with […] ALA in RPMI.
ii) a second petri dish contained infected whole blood plus RPMI but not ALA.
iii) a third petri dish contained normal whole blood cells with 5 mM ALA in RPMI.
iv) a fourth petri dish contained normal whole blood cells with RPMI but not ALA.
All petri dishes were incubated at 37 Celsius and room air environment. Samples (0.5 cc) were taken at regular intervals from these incubated petri dishes to be analyzed in the flow cytometer to follow accumulation of PpIX.

P. chabaudi = test system: P. chabaudi
Description: These examples involve the murine malarial parasites Plasmodium yoelii (lethal strain) and Plasmodium chabaudi (non-lethal strain) as models for human malaria.

[2] = test system: Enterobius vennicularis (pinworm); experiment: PpIX accumulation on exposure to exogenous ALA, pinworm; details: exposed to exogenous ALA
[3] = test system: endometrium (uterine horns); experiment: Long term photodynamic endometrial ablation in rats; type: in vivo, rat
Experimental: Rats were divided into 2 groups (6 and 7 rats/group) and their uterine horns were injected with 4 or 8 mg ALA. Example 1, of U.S. application Ser. No. 08/082,113, filed Jun. 21, 1993 (U.S. Pat. No. 5,422,093), was repeated with the exception that all rats were exposed to light and the time from ALA administration to breeding was extended from 10-20 days to 60-70 days. All other procedures were identical to Example 1.
In the groups of rats (n=7) treated with 8 mg ALA 2 of 7 became pregnant in ALA treated uterine horns compared with 7 of 7 pregnancies in the saline treated horns.
In order to show normal uterine histology of a nonpregnant uterine horn contralateral to a pregnant uterine horn one uterine horn was ligated at its distal end prior to breeding. At gestation of 10-15 days nonpregnant uterine horns were harvested and histologically processed. The uterine mucosa was lined with columnar epithelium and there was hypertrophic infolding of endometrial tissue with tortuous glands.

[4] = cells incubated with ALA in vitro
[5] = ALA by intraperitoneal injection
[6] = ALA in vivo, then photoactivating light
[7] = exposed to exogenous ALA, Example 10 list

NCC(=O)CCC(=O)O [ALA, 5-Amino-4-oxopentanoic acid]
solubility in water [1]: water soluble | PpIX fluorescence of whole blood incubated with ALA, flow cytometer (P. yoelii; ALA in RPMI 1640 (5 nM infected, 5 mM normal blood as printed), 37 Celsius): Only cells from infected mice developed PpIX fluorescence when incubated with ALA | PpIX accumulation in non-infected erythrocytes and leukocytes (P. yoelii; [4]): significant concentrations of PpIX did not accumulate | PpIX accumulation in plasmodia within erythrocytes (P. yoelii; [4]): accumulated within many of the plasmodia | PpIX accumulation in non-infected erythrocytes and leukocytes (P. chabaudi; [5]): significant concentrations of PpIX did not accumulate | PpIX accumulation in plasmodia within erythrocytes (P. chabaudi; [5]): accumulated in many of the plasmodia | ability of plasmodia to accumulate calcein from calcein-AM (P. chabaudi; [6]): lost their normal ability to accumulate calcein | ability of plasmodia to cause malaria in recipient mice (P. chabaudi; [6]): lost their ability to cause malaria when injected into recipient mice | accumulation of fluorescing concentrations of PpIX (P. chabaudi; [7]): ALA-induced fluorescence | accumulation of photosensitizing concentrations of PpIX (P. chabaudi; [7]): ALA-induced photosensitization | damage to non-infected erythrocytes and leukocytes (P. chabaudi; mouse, in vivo): showed no morphological evidence of damage | accumulation of fluorescing concentrations of PpIX [2]: ALA-induced fluorescence | accumulation of photosensitizing concentrations of PpIX [2]: ALA-induced photosensitization | implantations in uterine horns treated with ALA ([3]; 4 mg ALA, light, breeding 60-70 days after photodynamic treatment, n=6): no implantations | rats pregnant in ALA treated uterine horns ([3]; 8 mg ALA, light, breeding 60-70 days after treatment, n=7, saline horns 7 of 7): 2 of 7 | endometrial histology after photodynamic treatment ([3]; despite hormonal stimulus of contralateral pregnancy): atrophic endometrium
